# Test results published in patent US20100151104A1, “Preservative System For Beverages Based On Combinations Of Trans-Cinnamic Acid, Lauric Arginate, And Dimethyl Dicarbonate” (priority 2008, published 2010).
# Values joined by “and” are separate entries in the source; they are usually repeats but may differ in a detail not shown here. Identical values can stand only once.
# Legend:
# [1] = tested on: Zygosaccharomyces bisporous and Zygosaccharomyces bailii; test: Tolerance of fungal strains to cinnamic acid over 16 weeks incubation; assay type: cell-based
# Protocol: Over a period of incubation of 16 weeks, fungal strains are found to be tolerant to cinnamic acid at concentrations as high as 300 ppm, or even as high as 450 ppm cinnamic acid (pH 3.4). Thus, cinnamic acid, as a stand alone preservative, would need to be present at a concentrations as high as 450 ppm (e.g. between 450-500) in order to be assured that of preservation against spoilage by organisms such as Zygosaccharomyces bisporous and Zygosaccharomyces bailii for a period of at least 16 weeks. […] Beverage product case packaged in a container and which must pass through lengthy channels of distribution before reaching the consumer need be stable for a period as long as 16 weeks.
# [2] = pKa and un-dissociated fraction of cinnamic acid; assay type: physicochemical
# From the text: It should be noted that cinnamic acid has a particularly high plc, value (4.42) and at least 45% of the cinnamic acid added to beverage is in the form of the un-dissociated acid.
# fungal strains = conditions: prior art; incubation no greater than 72 hours; cited from earlier work
# Saccharomyces cerevsiae = test: Growth in 10% apple juice beverage with combinations of LAE & cinnamic acid; log (QA/Qa+QB/Qb) calculation; assay type: cell-based
# From the text: Trans-cinnamic acid and lauric arginate were combined in the following beverage formulation: [table] • Values reflect amount of growth (normalized) to control (0 ppm LAE & 0 ppm Cinnamic acid) for each pH tested. […] The analysis of the interaction between lauric arginate and cinnamic acid can be refined through use of a mathematical method developed by Voorspuij and Nass (Arch. Int. pharmacodyn. 59:211 1957) (generally accepted among those practiced in the art.) Herein, the interactions between two active substances can be explored. First the quantity (Qa=Molar Cone) of compound A required for an end point (concentration required to stabilize product for 16 weeks) is established. Similarly, the quantity (Qb =Molar cone) of substance B required to establish the same endpoint is established. Thereafter, mixtures of A & B, in quantities QA & Qs are established that also define endpoints. […] If the sum of the ratios for a mixture of A & Bare=1, then the interaction is considered additive. […] Calculation of log (QA/Qa+QB/Qb) for LAE+trans Cinnamic Acid vs Saccharomyces […]
# yeast and mold = conditions: recommended by inventor & manufacturer of LAE; cited from earlier work
# [3] = stand alone, end point = concentration required to stabilize product for 16 weeks
structure (smiles),measurement,setting,value
"O=C(O)/C=C/c1ccccc1 [Cinnamic Acid, trans-cinnamic acid]",concentration of cinnamic acid to which fungal strains are tolerant,"[1]; incubation of 16 weeks, pH 3.4",300 ppm and 450 ppm
same,stand alone concentration needed for preservation against spoilage for at least 16 weeks,"[1]; stand alone preservative, 16 weeks",450-500 ppm
same,cinnamic acid in the form of the un-dissociated acid,[2]; beverage pH 4.5,at least 45%
same,cinnamic acid in the form of the un-dissociated acid,[2]; pH 5.5,≤ 7.6%
same,MIC,fungal strains,125-180 ppm
same,QA/Qa + QB/Qb,"Saccharomyces cerevsiae; QLAE 0, QCA 300",1.00
same,QLAE/QLAE*,"Saccharomyces cerevsiae; QLAE 0, QCA 300",0.00
same,QNaB/QNAB*,"Saccharomyces cerevsiae; QLAE 0, QCA 300",1.00
same,log (QA/Qa + QB/Qb),"Saccharomyces cerevsiae; QLAE 0, QCA 300",0.0000
same,amount of growth (normalized) to control,"Saccharomyces cerevsiae; pH 3.0, LAE 0 ppm, Cinnamic Acid 10 ppm",80%
same,amount of growth (normalized) to control,"Saccharomyces cerevsiae; pH 3.0, LAE 0 ppm, Cinnamic Acid 20 ppm",74%
same,amount of growth (normalized) to control,"Saccharomyces cerevsiae; pH 3.0, LAE 0 ppm, Cinnamic Acid 50 ppm",50%
same,amount of growth (normalized) to control,"Saccharomyces cerevsiae; pH 3.0, LAE 0 ppm, Cinnamic Acid 75 ppm",26%
same,amount of growth (normalized) to control,"Saccharomyces cerevsiae; pH 3.0, LAE 0 ppm, Cinnamic Acid 100 ppm",11%
same,amount of growth (normalized) to control,"Saccharomyces cerevsiae; pH 3.5, LAE 0 ppm, Cinnamic Acid 10 ppm",96%
same,amount of growth (normalized) to control,"Saccharomyces cerevsiae; pH 3.5, LAE 0 ppm, Cinnamic Acid 20 ppm",85%
same,amount of growth (normalized) to control,"Saccharomyces cerevsiae; pH 3.5, LAE 0 ppm, Cinnamic Acid 50 ppm",61%
same,amount of growth (normalized) to control,"Saccharomyces cerevsiae; pH 3.5, LAE 0 ppm, Cinnamic Acid 75 ppm",44%
same,amount of growth (normalized) to control,"Saccharomyces cerevsiae; pH 3.5, LAE 0 ppm, Cinnamic Acid 100 ppm",22%
same,amount of growth (normalized) to control,"Saccharomyces cerevsiae; pH 4.0, LAE 0 ppm, Cinnamic Acid 10 ppm",96%
same,amount of growth (normalized) to control,"Saccharomyces cerevsiae; pH 4.0, LAE 0 ppm, Cinnamic Acid 20 ppm",87%
same,amount of growth (normalized) to control,"Saccharomyces cerevsiae; pH 4.0, LAE 0 ppm, Cinnamic Acid 50 ppm",72%
same,amount of growth (normalized) to control,"Saccharomyces cerevsiae; pH 4.0, LAE 0 ppm, Cinnamic Acid 75 ppm",54%
same,amount of growth (normalized) to control,"Saccharomyces cerevsiae; pH 4.0, LAE 0 ppm, Cinnamic Acid 100 ppm",39%
same,QCA* (quantity of cinnamic acid alone required for the end point),Saccharomyces cerevsiae; [3],QCA* 300
"CCCCCCCCCCCC(=O)N[C@@H](CCCNC(=N)N)C(=O)OCC.Cl [LAE, ethyl-N-lauroyl-L-argniate hydrochloride]",recommended stand alone concentration to stabilize beverages against spoilage,yeast and mold,128 ppm
same,QA/Qa + QB/Qb,"Saccharomyces cerevsiae; QLAE 32, QCA 0",1.00
same,QLAE/QLAE*,"Saccharomyces cerevsiae; QLAE 32, QCA 0",1.00
same,QNaB/QNAB*,"Saccharomyces cerevsiae; QLAE 32, QCA 0",0.00
same,log (QA/Qa + QB/Qb),"Saccharomyces cerevsiae; QLAE 32, QCA 0",0.0000
same,amount of growth (normalized) to control,"Saccharomyces cerevsiae; pH 3.0, LAE 2.5 ppm, Cinnamic Acid 0 ppm",97%
same,amount of growth (normalized) to control,"Saccharomyces cerevsiae; pH 3.0, LAE 5 ppm, Cinnamic Acid 0 ppm",97%
same,amount of growth (normalized) to control,"Saccharomyces cerevsiae; pH 3.0, LAE 7.5 ppm, Cinnamic Acid 0 ppm",86%
same,amount of growth (normalized) to control,"Saccharomyces cerevsiae; pH 3.0, LAE 10 ppm, Cinnamic Acid 0 ppm",94%
same,amount of growth (normalized) to control,"Saccharomyces cerevsiae; pH 3.0, LAE 15 ppm, Cinnamic Acid 0 ppm",42%
same,amount of growth (normalized) to control,"Saccharomyces cerevsiae; pH 3.5, LAE 2.5 ppm, Cinnamic Acid 0 ppm",103%
same,amount of growth (normalized) to control,"Saccharomyces cerevsiae; pH 3.5, LAE 5 ppm, Cinnamic Acid 0 ppm",104%
same,amount of growth (normalized) to control,"Saccharomyces cerevsiae; pH 3.5, LAE 7.5 ppm, Cinnamic Acid 0 ppm",93%
same,amount of growth (normalized) to control,"Saccharomyces cerevsiae; pH 3.5, LAE 10 ppm, Cinnamic Acid 0 ppm",105%
same,amount of growth (normalized) to control,"Saccharomyces cerevsiae; pH 3.5, LAE 15 ppm, Cinnamic Acid 0 ppm",57%
same,amount of growth (normalized) to control,"Saccharomyces cerevsiae; pH 4.0, LAE 2.5 ppm, Cinnamic Acid 0 ppm",101%
same,amount of growth (normalized) to control,"Saccharomyces cerevsiae; pH 4.0, LAE 5 ppm, Cinnamic Acid 0 ppm",96%
same,amount of growth (normalized) to control,"Saccharomyces cerevsiae; pH 4.0, LAE 7.5 ppm, Cinnamic Acid 0 ppm",91%
same,amount of growth (normalized) to control,"Saccharomyces cerevsiae; pH 4.0, LAE 10 ppm, Cinnamic Acid 0 ppm",90%
same,amount of growth (normalized) to control,"Saccharomyces cerevsiae; pH 4.0, LAE 15 ppm, Cinnamic Acid 0 ppm",79%
same,QLAE* (quantity of LAE alone required for the end point),Saccharomyces cerevsiae; [3],QLAE* 32
